Our source for the inhibition and Activity values is ChEMBL document CHEMBL3621205, “High-Throughput Screening of Patient-Derived Cultures Reveals Potential for Precision Medicine in Glioblastoma” (ACS Med Chem Lett, 2015).

SMILES strings stand for the structures. Calls of active or inactive are those of the source. The calls are words filed in the database; no cut-off is given here.

Holding throughout (type): functional, cell-based
Test [1] relates to Glioma. In words: Decrease in phosphorylated S6 ribosomal protein level at Ser235 residue in human Glioma cells (HF2476) by western blot analysis.
The subject of test [2] is Glioma. The test can be described thus: Cytotoxicity against human Glioma cells (HF3013) after 72 hrs by CelltiterGlo assay in presence of Bcl2-inhibitor ABT-263.
For test [3], the system named is Glioma. In words: Decrease in phosphorylated S6 ribosomal protein level at Ser235 residue in human Glioma cells (HF2876) by western blot analysis.
In test [4] the test system is Glioma. In words: Cytotoxicity against human Glioma cells (HF2876) after 72 hrs by CelltiterGlo assay in presence of Bcl2-inhibitor ABT-263.
The test system of test [5] is Glioma. The test can be described thus: Cytotoxicity against human Glioma cells (HF2476) after 72 hrs by CelltiterGlo assay in presence of Bcl2-inhibitor ABT-263.
The subject of test [6] is Glioma. In words: Cytotoxicity against human Glioma cells (HF2303) after 72 hrs by CelltiterGlo assay in presence of Bcl2-inhibitor ABT-263.
Test [7] relates to Glioma. The test can be described thus: Decrease in phosphorylated S6 ribosomal protein level at Ser236 residue in human Glioma cells (HF2476) by western blot analysis.
For test [8], the system named is Glioma. In words: Decrease in phosphorylated S6 ribosomal protein level at Ser236 residue in human Glioma cells (HF2876) by western blot analysis.
The subject of test [9] is Glioma. In words: Cytotoxicity against human Glioma cells (HF2303) at 50 uM after 72 hrs by CelltiterGlo assay.
The subject of test [10] is Glioma. The test can be described thus: Cytotoxicity against human Glioma cells (HF2876) at 50 uM after 72 hrs by CelltiterGlo assay.
Test [11] concerns Glioma. The test can be described thus: Cytotoxicity against human Glioma cells (HF3013) at 50 uM after 72 hrs by CelltiterGlo assay.
The subject of test [12] is Glioma. In words: Cytotoxicity against human Glioma cells (HF2476) at 50 uM after 72 hrs by CelltiterGlo assay.
Test [13] concerns Glioma. In words: Cytotoxicity against human Glioma cells (HF2885) at 50 uM after 72 hrs by CelltiterGlo assay.
The subject of test [14] is Glioma. The test can be described thus: Cytotoxicity against human Glioma cells (HF2381) at 50 uM after 72 hrs by CelltiterGlo assay.
Test [15] relates to Glioma. The test can be described thus: Cytotoxicity against human Glioma cells (HF2790) at 50 uM after 72 hrs by CelltiterGlo assay.
Test [16] has as its system Glioma. The test can be described thus: Cytotoxicity against human Glioma cells (HF3013) after 72 hrs by CelltiterGlo assay.
Test [17] has as its system Glioma. In words: Cytotoxicity against human Glioma cells (HF2476) after 72 hrs by CelltiterGlo assay in presence of mTOR inhibitor AZD-8055.
Test [18] concerns Glioma. In words: Induction of apoptosis in human Glioma cells (HF2476) assessed as increase in cleaved caspase-3 level by western blot analysis.
Test [19] concerns Glioma. In words: Cytotoxicity against human Glioma cells (HF2876) after 72 hrs by CelltiterGlo assay.
In test [20] the test system is Glioma. The test can be described thus: Cytotoxicity against human Glioma cells (HF3013) after 72 hrs by CelltiterGlo assay in presence of mTOR inhibitor AZD-8055.
In test [21] the test system is Glioma. In words: Induction of apoptosis in human Glioma cells (HF2876) assessed as increase in cleaved caspase-3 level by western blot analysis.
Test [22] has as its system Glioma. In words: Cytotoxicity against human Glioma cells (HF2476) after 72 hrs by CelltiterGlo assay.
Test [23] concerns Glioma. In words: Cytotoxicity against human Glioma cells (HF2303) after 72 hrs by CelltiterGlo assay in presence of mTOR inhibitor AZD-8055.
For test [24], the system named is Glioma. The test can be described thus: Cytotoxicity against human Glioma cells (HF2876) after 72 hrs by CelltiterGlo assay in presence of mTOR inhibitor AZD-8055.
The test system of test [25] is Glioma. In words: Cytotoxicity against human Glioma cells (HF2303) after 72 hrs by CelltiterGlo assay.

As to `COc1ccc(-c2ccc3c(N4CCOC[C@@H]4C)nc(N4CCOC[C@@H]4C)nc3n2)cc1CO`, the inhibition result in test [1], in [3], in test [7] and in [8] was “Active” each time. Also, the result in test [2] and in [5] was Active. For the same compound, the result in test [4] and in [6] was inactive.

Take `Cn1nnc2c(C(N)=O)ncn2c1=O`: the result in test [9], in test [10], in test [11], in [12], in test [13] and in test [14] was inactive. The result in [15] was inactive.

`CC1(C)CCC(c2ccc(Cl)cc2)=C(CN2CCN(c3ccc(C(=O)NS(=O)(=O)c4ccc(N[C@H](CCN5CCOCC5)CSc5ccccc5)c(S(=O)(=O)C(F)(F)F)c4)cc3)CC2)C1`: the outcome in [16], in test [19], in [22] and in test [25] was inactive. Also, the result in test [17], in test [18], in [20], in test [21], in [23] and in test [24] was Active.
